Results published in the NIST ThermoML archive (doi:10.1016/j.fluid.2016.02.035).

Experiment: mn = molality of the nth substance listed, in mol/kg
Conditions: 101 kPa, Liquid; for speed of sound: Sing-around technique in a fixed-path interferometer; for mass density: Vibrating tube method

CCCC[N+](CCCC)(CCCC)CCCC.[Br-] [tetrabutylammonium bromide] + O
Conditions | mass density, 308.15 K [kg/m3] | mass density, 313.15 K [kg/m3] | mass density, 318.15 K [kg/m3] | speed of sound, 308.15 K [m/s] | speed of sound, 313.15 K [m/s] | speed of sound, 318.15 K [m/s]
m1 = 0.0015 | 994.069 | 992.252 | 990.25 | 1520.2 | 1529.2 | 1536.8
m1 = 0.0047 | 994.133 | 992.309 | 990.268 | 1520.9 | 1529.9 | 1537.4
m1 = 0.0061 | 994.141 | 992.322 | 990.285 | 1521.2 | 1530.2 | 1537.6
m1 = 0.013 | 994.299 | 992.471 | 990.457 | 1522.5 | 1531.4 | 1538.7
m1 = 0.0183 | 994.411 | 992.571 | 990.535 | 1523.7 | 1532.4 | 1539.7
m1 = 0.026 | 994.559 | 992.724 | 990.703 | 1525.1 | 1533.8 | 1540.9
m1 = 0.031 | 994.67 | 992.829 | 990.802 | 1526.1 | 1534.7 | 1541.8
m1 = 0.0492 | 995.05 | 993.186 | 991.142 | 1529.5 | 1537.8 | 1544.6
m1 = 0.0796 | 995.683 | 993.797 | 991.727 | 1535.4 | 1543.2 | 1549.6
m1 = 0.0997 | 996.092 | 994.191 | 992.105 | 1539.2 | 1546.6 | 1552.7
m1 = 0.1118 | 996.35 | 994.435 | 992.338 | 1541.5 | 1548.8 | 1554.6
m1 = 0.1291 | 996.709 | 994.777 | 992.665 | 1544.7 | 1551.7 | 1557.3
m1 = 0.1464 | 997.075 | 995.128 | 992.999 | 1547.8 | 1554.6 | 1559.9
m1 = 0.1626 | 997.408 | 995.446 | 993.303 | 1550.7 | 1557.2 | 1562.3
m1 = 0.1952 | 998.092 | 996.099 | 993.923 | 1556.3 | 1562.3 | 1567
m1 = 0.2309 | 998.837 | 996.807 | 994.602 | 1562.5 | 1567.9 | 1572
m1 = 0.2732 | 999.711 | 997.64 | 995.396 | 1569.5 | 1574.3 | 1577.8
m1 = 0.3073 | 1000.41 | 998.309 | 996.027 | 1574.9 | 1579.2 | 1582.3
m1 = 0.3449 | 1001.16 | 999.017 | 996.7 | 1580.8 | 1584.5 | 1587.1
m1 = 0.5437 | 1005.11 | 1002.75 | 1000.24 | 1608.6 | 1609.5 | 1609.2
m1 = 0.7712 | 1009.28 | 1006.68 | 1003.95 | 1634.4 | 1632 | 1629
